Results on nine molecules are retold here after patent US20060194835A1, “Compositions and methods for treating or preventing flaviviridae infections” (priority 2005, published 2006).

Data set [1] relates to BVDV. The data set is described as follows: Protection of MDBK cells from BVDV-induced cytopathicity (CPE reduction, MTS/PMS). The data set is classed as cell-based, bovine viral diarrhea virus. The following applies: for EC50: 50% CPE reduction; for protection of MDBK cells from BVDV-induced cytopathicity (in words): at the concentrations tested. For orientation: Protection from cytopathic effect is a common read-out in antiviral testing.

The next data set is described as follows: in vitro. The following applies: bovine.
Data set [2] in a line: Drug cytotoxicity in uninfected MDBK cells (MTS/PMS). The following applies: bovine.
Data set [3] relates to BVDV. The data set is described as follows: Double combination checkerboard CPE assay, MacSynergy II and isobolograms. The following applies: at 10 IU/mL interferon-α2b. It counts as cell-based, bovine viral diarrhea virus. As to the method:
A double combination assay was performed using MDBK cells infected with BVDV in an inhibition of cytopathic effect (CPE) assay as described in Example 2. The double drug combinations were measured by creating a “checkerboard” of drug concentrations used on cell monolayers in microtiter plates, with one drug being titrated horizontally and the other drug titrated vertically, and each double combination being tested at least twice.
The EC50 values of a first test compound derived while in combination with a second test compound were plotted against the corresponding concentration of the second test compound to create an isobole (dose pair). All of the isoboles were plotted in an isobologram to determine the presence of synergy, antagonism or additivity for the combined test compounds. […] The line connecting the monotherapy EC50 values represents the theoretical additivity effect values for the two compounds.
In addition to generating isobolograms, the checkerboard data was imported into MacSynergy™ II software to graph the observed synergy (or additive or antagonism) volumes for the double combinations tested. Briefly, the calculated additive interactions were subtracted from the experimentally determined values to reveal the corresponding drug concentrations at which a synergistic (indicated by positive % values) or antagonistic (indicated by negative % values) effect is observed. The greater the positive percent volume observed, the greater the synergy between the two compounds. […] In contrast, any value about or less than −25 μM^2% or μM(IU/mL) % is indicative of a significant antagonistic effect. The data presented in Table 5 represent volumes of synergy or antagonism with 95% confidence. The confidence level was calculated using a Bonferroni adjustment as a conservative estimate of significance to statistically evaluate the data.

Data set [4] concerns BVDV. The data set is described as follows: Triple combination checkerboard CPE assay (celgosivir or castanospermine + interferon-α2b + ribavirin), MacSynergy II. The data set is classed as cell-based, bovine viral diarrhea virus. The following applies: for EC50: read-out: Average Castanospermine EC50. As to the method:
Each double or triple combination was performed twice. The combination efficacy data were analyzed using the MacSynergy™ II software program as described herein.
Each double or triple combination was performed twice. The combination efficacy data were analyzed using the MacSynergy™ II software program as described herein. The EC50 for each of celgosivir and castanospermine was calculated from the triple combination studies described in Example 6.
Each double or triple combination was performed twice. The combination efficacy data were analyzed using the MacSynergy™ software program as described herein. The EC50 for interferon-α2b was calculated from the triple combination studies described in Example 6.

For data set [5], the system named is MDBK cells. The data set is described as follows: Drug cytotoxicity in uninfected MDBK cells (MTS/PMS). The following applies: uninfected MDBK cells.
A further data set has as its system BVDV strain NADL. The data set is described as follows: Inhibition of viral release from BVDV-infected MDBK cells (plaque titer). The following applies: MOI = 1; for EC50: inhibits 50% of viral release; for EC50 / EC90: 24 hours; for EC90: inhibits 90% of viral release.
The subject of data set [6] is MDBK cells. The data set is described as follows: Cytotoxicity of test compound in MDBK cells in the absence of viral infection (Example 1). The following applies: absence of viral infection.
[7] abbreviates: Bovine viral diarrhea virus isolates and strains, MDBK, MOI 0.05.

Where only a bound is given, the exact number is not on record here.

In the data set on BVDV [1] (setting [7]), `O=C(N[C@@H](Cc1c[nH]c2ccccc12)C(=O)O)c1ccc2ccn(Cc3ccccc3)c2c1` [2-BAIP, (L)-2-[(1-Benzyl-1H-indole-6-carbonyl)-amino]-3-(1H-indol-3-yl)-propionic acid, reference compound] showed an EC50 of over 50 µM. Moreover, the “protection of MDBK cells from BVDV-induced cytopathicity (in words)” value in the data set with BVDV [1] is “do not protect”. In the data set “in vitro”, this molecule registered a CC50 of over 50 µM.
Turning to `NC12CC3CC(CC(C3)C1)C2` [Amantadine, amantadine, reference compound], the EC50 in the data set with BVDV [1] (MOI 0.05) was determined as 357 µM; in the data set with BVDV [1] (setting [7]) it was 476 µM. This molecule also showed a CC50 in data set [2] of over 1000 µM.
With `O[C@H]1[C@H](O)[C@@H](O)CN2CC[C@H](O)[C@H]12` [Castanospermine, [1S-(1α,6β,7α,8β,8aβ)]-octahydro-1,6,7,8-indolizinetetrol], the EC50 with BVDV [1] (MOI 0.01, read-out: EC50) is 62 ± 15 µM; in the data set with BVDV [4] (Ribavirin 0 μM, Interferon-α2b 0 IU/mL, listed as castanospermine), about 52 µM; in the data set with BVDV [4] (Ribavirin 0 μM, Interferon-α2b 0 IU/mL) it was 52.2 ± 9.5 µM; with BVDV [4] (Ribavirin 0 μM, Interferon-α2b 0.7 IU/mL), 39 ± 13.4 µM; with BVDV [4] (Ribavirin 0 μM, Interferon-α2b 2.2 IU/mL) it was 18.9 ± 2.1 µM; in the data set on BVDV [4] (Ribavirin 0 μM, Interferon-α2b 6.7 IU/mL), 11.9 ± 2.5 µM. Besides, the EC50 with BVDV [4] (Ribavirin 0 μM, Interferon-α2b 20 IU/mL) is under 1.3 µM; with BVDV [4] (Ribavirin 0.12 μM, Interferon-α2b 0.7 IU/mL), 34.3 ± 3.4 µM; with BVDV [4] (Ribavirin 0.12 μM, Interferon-α2b 2.2 IU/mL), 23.4 ± 2.4 µM; with BVDV [4] (Ribavirin 0.12 μM, Interferon-α2b 6.7 IU/mL) it was 9.7 ± 4.8 µM; with BVDV [4] (Ribavirin 0.12 μM, Interferon-α2b 20 IU/mL), under 1.4 µM; in the data set with BVDV [4] (Ribavirin 0.37 μM, Interferon-α2b 0.7 IU/mL), 27.7 ± 6.3 µM. In addition, the EC50 with BVDV [4] (Ribavirin 0.37 μM, Interferon-α2b 2.2 IU/mL) was 19.7 ± 5.2 µM; in the data set on BVDV [4] (Ribavirin 0.37 μM, Interferon-α2b 6.7 IU/mL), 6.5 ± 7.5 µM; with BVDV [4] (Ribavirin 0.37 μM, Interferon-α2b 20 IU/mL), under 1.5 µM; with BVDV [4] (Ribavirin 1.1 μM, Interferon-α2b 0.7 IU/mL) it was 14 ± 4.5 µM; in the data set on BVDV [4] (Ribavirin 1.1 μM, Interferon-α2b 2.2 IU/mL) it was 6.9 ± 1 µM; with BVDV [4] (Ribavirin 1.1 μM, Interferon-α2b 6.7 IU/mL) it was under 1.2 µM. The EC50 in the data set on BVDV [4] (Ribavirin 1.1 μM, Interferon-α2b 20 IU/mL) was under 1.2 µM; in the data set with BVDV [4] (Ribavirin 3.3 μM, Interferon-α2b 0.7 IU/mL) it was under 1.2 µM; with BVDV [4] (Ribavirin 3.3 μM, Interferon-α2b 2.2 IU/mL) it was under 1.2 µM; in the data set with BVDV [4] (Ribavirin 3.3 μM, Interferon-α2b 6.7 IU/mL), under 1.2 µM; in the data set on BVDV [4] (Ribavirin 3.3 μM, Interferon-α2b 20 IU/mL), under 1.2 µM; in the data set with BVDV strain NADL it was 19.4 ± 8.3 µM. In addition, the “fold reduction of EC50 of castanospermine” value in the data set with BVDV [3] was “more than 7 fold”. For the same molecule, the “dose-dependent reduction in EC50” value in the data set on BVDV [4] (upon the addition of increasing concentrations of interferon-α2b) is “up to 52 fold”. For the same molecule, the CC50 is over 1000 µM in the data set on MDBK cells [5] and over 2000 µM in the data set with MDBK cells [6]. Besides, the “TI (Therapeutic Index, CC50/EC50)” value with BVDV strain NADL is given as over 100. This molecule had an EC90 in the data set with BVDV strain NADL of 89 ± 21 µM.
`CCCCN1C[C@H](O)[C@@H](O)[C@H](O)[C@H]1CO` [NB-DNJ, N-butyldeoxynojirimycin, reference compound]: the EC50 in the data set on BVDV [1] (MOI 0.05, read-out: EC50) was found to be 459 µM. Also, in the data set on MDBK cells [5], the CC50 was over 500 µM.
In the case of `C[C@@]1(O)[C@H](O)[C@@H](CO)O[C@H]1n1ccc(N)nc1=O` [NM-107, 2′-C-methyl cytidine, reference compound], in the data set with BVDV [1] (Bovine viral diarrhea virus isolates and strains, MDBK, MOI 0.01), the EC50 was 2.1 ± 0.5 µM. In “in vitro”, this molecule gave a CC50 of 228 µM.
Turning to Interferon-α2b, the EC50 in the data set on BVDV [1] (MOI 0.01) is reported as 19.4 ± 6 IU/mL; in the data set with BVDV strain NADL, 8.0 ± 6.8 IU/mL. The “Average Interferon-α2b EC50” value with BVDV [4] (Castanospermine added 0 μM) was 16 IU/mL; in the data set on BVDV [4] (Castanospermine added 1.2 μM), 18 IU/mL; with BVDV [4] (Castanospermine added 3.7 μM), 13 IU/mL; in the data set with BVDV [4] (Castanospermine added 11 μM), 7 IU/mL; in the data set on BVDV [4] (Castanospermine added 33 μM) it was 1 IU/mL; in the data set with BVDV [4] (Celgosivir added 0 μM), 19 IU/mL. The “Average Interferon-α2b EC50” value in the data set with BVDV [4] (Celgosivir added 0.25 μM) is 21 IU/mL; in the data set with BVDV [4] (Celgosivir added 0.74 μM), 14 IU/mL; in the data set with BVDV [4] (Celgosivir added 2.2 μM), 5 IU/mL; with BVDV [4] (Celgosivir added 6.7 μM) it was under 1 IU/mL. Besides, the “EC50 of interferon-α2b” value is on record as “less than 1 IU/mL” in the data set with BVDV [4] (at increased concentration of castanospermine or celgosivir) and “about 20 IU/mL” with BVDV [4] (without added castanospermine or celgosivir). The CC50 in the data set with MDBK cells [5] is over 300 IU/mL; with MDBK cells [6], over 1000 IU/mL. Besides, the “TI (Therapeutic Index, CC50/EC50)” value in the data set with BVDV strain NADL is on record as over 200. This molecule came in with an EC90 in the data set with BVDV strain NADL of 114 ± 92 IU/mL.
Take “Interferon-ω: type I interferon, interferon-ω (Cedarlane Laboratories)”: the EC50 in the data set on BVDV [1] (MOI 0.01) is on record as 37 ± 1.4 IU/mL. Also, the CC50 with MDBK cells [5] was over 1000 IU/mL.
On the same counts, the results for Peginterferon-α2a are 16.6 ± 11 IU/mL and over 1000 IU/mL.

B1: Interferon-γ: type II interferon (protein, UniProt P01579 24-161, looked up)
Interferon gamma: QDPYVKEAENLKKYFNAGHSDVADNGTLFLGILKNWKEESDRKIMQSQIVSFYFKLFKNFKDDQSIQKSVETIKEDMNVKFFNSNKKKRDDFEKLTNYSVTDLNVQRKAIHELIQVMAELSPAAKTGKRKRSQMLFRG
In turn, B1 yielded an EC50 with BVDV [1] (MOI 0.01) of over 1000 IU/mL. Also, in the data set with BVDV [1], the “protection of MDBK cells from BVDV-induced cytopathicity (in words)” value is “do not protect”. Also, in the data set with MDBK cells [5], the CC50 is over 1000 IU/mL.
